We go through three molecules from patent US12054560B2, “Bifunctional molecules recruiting antibodies and targeting cancer cells” (JIANGNAN UNIVERSITY, priority 2017, dated 2024).

Bridge positions count the residues as written; N and C are the ends. Ends that are not written are not given here.

Assay [1] deals with HUVEC (high expression of CD13). The assay is described as follows: Flow cytometry, recruitment of anti-DNP antibody on HUVEC cells. Format: cell-based. To be noted: 250 nM, anti-DNP antibody 20 μg/mL, FIG. 9. As for the experimental part: Cell assay implementation: cell culture: commercial cells HUVEC (high expression of CD13) was cultured in DMEM complete medium. All cell culture conditions were 37° C., 5% CO2. Flow cytometry assay: (1) The cells were digested with trypsin, resuspended in flow medium diluted to 1×10^5 cells. 400 μL of cells (40,000 cells) were added to a sterile EP tube. (2) NGR oligopeptide (NGR peptide, amino acid sequence: GGG-cyclo-(CNGRC) (SEQ ID NO:8)) or NGR-DNP were added at a final concentration of 250 nM. In the negative control group, cells were treated with PBS. The cells were added anti-DNP (anti-DNP) antibody at a concentration of 20 μg/mL in all groups, incubate on ice for 1 h. then the cells were washed and incubated with fluorescent secondary antibody for 0.5 h. (3) The cells were thoroughly washed gently with a flow buffer, resuspended, and analyzed by instruments.
(In general: In flow cytometry, cells or beads pass a laser one at a time.)

Assay [2] relates to HUVEC cells. The experiment in a line: CDC assay on HUVEC cells. Format: cell-based. As to conditions: 250 nM, anti-DNP antibody, 10% complement, cck8 method, FIG. 9. As for the experimental part:
CDC assay implementation: (1) HUVEC cells were seeded in 96-well plates at a concentration of 5,000 cells/well. After the cells were fully attached, added with NGR oligopeptide (NGR peptide, amino acid sequence: GGG-cyclo-(CNGRC) (SEQ ID NO:8)) or NGR-DNP compound at a final concentration of 250 nM and added a certain concentration of anti-DNP antibody at the same time. After 2 hours of incubation at 37° C., a final concentration of 10% of the complement solution was added and incubated for 1 hour at 37° C. After the incubation, the cell viability was measured by the cck8 method.

Assay [3] concerns HUVEC cells. The assay is described as follows: ADCC assay on HUVEC cells. Format: cell-based. As to conditions: 250 nM, anti-DNP antibody, PBMC, LDH method, FIG. 9. As for the experimental part:
ADCC assay implementation: (1) HUVEC cells were seeded in 96-well plates at a concentration of 10,000 cells/well. After the cells were fully attached, added with NGR oligopeptide (NGR peptide, amino acid sequence: GGG-cyclo-(CNGRC) (SEQ ID NO:8)) or NGR-DNP compound at a final concentration of 250 nM and immediately added a certain concentration of anti-DNP antibody. (2) After incubation for a period of time, freshly extracted PBMC cells were added at a certain effect target ratio for a certain period of time. (3) The supernatant was removed by centrifugation, and cytotoxicity was measured by the LDH method.

Assay [4] relates to SKBR3 (HER2 positive) cells. The experiment in a line: Flow cytometry, recruitment of anti-Rha IgG on SKBR3 cells. To be noted: 250 nM, Alexa 488-conjugated rabbit anti-Rha IgG, FIG. 5. In kind it is cell-based. As for the experimental part: SKBR3 (HER2 positive) and MCF7 cells (HER2 negative) were grown in DMEM supplemented with 10% FBS, 1% penicillin-streptomycin. All cells were cultured at 37° C. in a 5% CO2 humidified atmosphere.
(1) Cells were cultured and detached with trypsin-EDTA and then resuspended to 1.0×10^5 cells/mL. Forty thousand of these cells were added into tubes. (2) Nanobody C7b and Rha conjugated C7b were then added to a final concentration of 250 nM, followed which Alexa 488-conjugated rabbit anti-Rha IgG antibodies were added. In the negative control group, cells were treated with PBS instead of nanobody. These cells were incubated on ice for 60 min, (3) washed with flow cytometry buffer and then analyzed using an Accuri C6 flow cytometer.

The next assay concerns the target T1, CD13 receptor, P15144.
T1 chain: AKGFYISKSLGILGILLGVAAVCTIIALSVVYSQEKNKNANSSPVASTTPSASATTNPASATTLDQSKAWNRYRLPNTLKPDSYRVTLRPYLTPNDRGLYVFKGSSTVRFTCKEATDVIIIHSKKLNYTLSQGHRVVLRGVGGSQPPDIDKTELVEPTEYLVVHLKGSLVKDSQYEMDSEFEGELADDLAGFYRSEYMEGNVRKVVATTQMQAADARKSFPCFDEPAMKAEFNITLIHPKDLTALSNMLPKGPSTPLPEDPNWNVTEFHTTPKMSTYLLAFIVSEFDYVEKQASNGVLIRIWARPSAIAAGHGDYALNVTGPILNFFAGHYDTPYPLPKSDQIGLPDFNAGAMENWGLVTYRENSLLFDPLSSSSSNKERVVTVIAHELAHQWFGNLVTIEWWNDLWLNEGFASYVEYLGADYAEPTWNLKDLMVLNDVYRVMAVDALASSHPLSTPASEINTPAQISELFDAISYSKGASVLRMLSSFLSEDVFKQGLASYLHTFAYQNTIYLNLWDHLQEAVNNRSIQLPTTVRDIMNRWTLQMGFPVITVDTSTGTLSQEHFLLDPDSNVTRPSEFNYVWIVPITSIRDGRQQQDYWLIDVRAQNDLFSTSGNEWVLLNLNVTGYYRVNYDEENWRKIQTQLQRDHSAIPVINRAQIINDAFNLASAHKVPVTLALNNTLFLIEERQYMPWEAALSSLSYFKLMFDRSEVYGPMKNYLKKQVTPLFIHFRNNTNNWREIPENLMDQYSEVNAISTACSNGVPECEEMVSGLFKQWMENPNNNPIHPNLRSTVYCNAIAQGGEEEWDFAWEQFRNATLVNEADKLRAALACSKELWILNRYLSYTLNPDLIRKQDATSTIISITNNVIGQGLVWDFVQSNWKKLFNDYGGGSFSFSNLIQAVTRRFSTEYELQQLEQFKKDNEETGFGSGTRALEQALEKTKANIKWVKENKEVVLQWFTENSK
The experiment in a line: cell-based or functional assay.

Take “NGR-DNP: DNP-TEG-COOH coupled to peptide GGGCNGRC, oxidized with iodine to the cyclic form (GGGCNGRC-OH; disulfide 4-8 (inferred); also: DNP-TEG-COOH coupled to peptide, site not given here)”: the “recruitment of antibodies and targeting of tumor cells” value in assay [1] was “can recruit antibodies and target tumor cells”. Also, in the assay with HUVEC cells [2], the “CDC cell lysis rate” value was “approximately 60%”. In the assay with HUVEC cells [3], the “ADCC cell lysis rate” value is “approximately 60%”.

B1: C7b: anti-HER2 nanobody C7b, SEQ ID NO: 2 (related NCBI sequence ID: AFN61318.1) (protein)
VHH: MQVQLVQSGGGLVQAGGSLRLSCAASGRTFSSYAMAWFRQAPGKEREFVAAISWSGANIYVADSVKGRFTISRDNAKDTVYLQMNSLKPEDTAVYYCAVKLGFAPVEERQYDYWGQGTQVTVSSLPETGG
modifications: The HER2-specific nanobody C7b sequence was genetically engineered to contain at its C-terminus a sorting signal for further sortase A-mediated ligation.
Consider B1, for which, in assay [4], the “fluorescence intensity increase compared to negative control (accumulation of anti-Rha IgGs on cells)” value is given as “no fluorescence intensity increase”.

B2: NGR-DNP (peptide)
peptide: GGGCNGRC
modifications: not checked
Take B2: the CDC and ADCC cell lysis rate with CD13 receptor, P15144 was 60%.
